In this assay the target is T1, BCL6 (Homo sapiens, UniProt P41182).
T1 construct: endogenous in cells; host or cells: T47D breast cancer epithelial cells
The experiment in a line: Immunofluorescence protocol for high content imaging of BCL6 (degradation) in T47D cells, 3 days compound treatment. Type of assay: cell-based. To be noted: T47D cells, 3 days compound treatment; for DC50: read-out: Mean DC50 (nM)* category; for Dmax: read-out: Mean Dmax (%)** category. The method, boiled down: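 High content immunofluorescence imaging (10×, 4 fields/well) of BCL6 using rabbit primary antibody, Alexa-488 secondary, cell mask and Hoechst nuclear stain after PFA fixation. Before staining, T47D cells (7K/well) were exposed for 3 days at 37° C to 3-fold serial dilutions of compound, top final concentration 0.1 or 1 μM.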

The DC50 is the midpoint of the concentration-degradation curve. Broadly, the Dmax is the largest share of the target that was removed.

As to `CNC(=O)COc1cc2cc(Nc3nc(N4CCOC5(CN(CCC6CCN(c7cccc8c7C(=O)N(C7CCC(=O)NC7=O)C8=O)CC6)C5)C4)ncc3Cl)ccc2n(C(C)C)c1=O` (stereo not drawn) [Compound 144, 2-{[6-({5-chloro-2-[2-(2-{1-[2-(2,6-dioxopiperidin-3-yl)-1,3-dioxo-2,3-dihydro-1H-isoindol-4-yl]piperidin-4-yl}ethyl)-5-oxa-2,8-diazaspiro[3.5]nonan-8-yl]pyrimidin-4-yl}amino)-2-oxo-1-(propan-2-yl)-1,2-dihydroquinolin-3-yl]oxy}-N-methylacetamide], the DC50 was at least 100 nM and the Dmax was at least 70%.
Regarding `CNC(=O)COc1cc2cc(Nc3nc(N4CCOC5(CN(CCC6CCN(c7ccc8c(c7)C(=O)N(C7CCC(=O)NC7=O)C8=O)CC6)C5)C4)ncc3Cl)ccc2n(C(C)C)c1=O` (stereo not drawn) [Compound 145, 2-{[6-({5-chloro-2-[2-(2-{1-[2-(2,6-dioxopiperidin-3-yl)-1,3-dioxo-2,3-dihydro-1H-isoindol-5-yl]piperidin-4-yl}ethyl)-5-oxa-2,8-diazaspiro[3.5]nonan-8-yl]pyrimidin-4-yl}amino)-2-oxo-1-(propan-2-yl)-1,2-dihydroquinolin-3-yl]oxy}-N-methylacetamide], the DC50 was below 10 nM.
On to `CNC(=O)COc1cc2cc(Nc3ncncc3Cl)ccc2n(CCOc2ccc3c(c2)C(=O)N(C2CCC(=O)NC2=O)C3=O)c1=O` (stereo not drawn) [Compound 146, 2-({6-[(5-chloropyrimidin-4-yl)amino]-1-(2-{[2-(2,6-dioxopiperidin-3-yl)-1,3-dioxo-2,3-dihydro-1H-isoindol-5-yl]oxy}ethyl)-2-oxo-1,2-dihydroquinolin-3-yl}oxy)-N-methylacetamide], for which the DC50 is below 10 nM.
In the case of `CNC(=O)COc1cc2cc(Nc3nc(C)ncc3Cl)ccc2n(CCOc2ccc3c(c2)C(=O)N(C2CCC(=O)NC2=O)C3=O)c1=O` (stereo not drawn) [Compound 147, 2-({6-[(5-chloro-2-methylpyrimidin-4-yl)amino]-1-(2-{[2-(2,6-dioxopiperidin-3-yl)-1,3-dioxo-2,3-dihydro-1H-isoindol-5-yl]oxy}ethyl)-2-oxo-1,2-dihydroquinolin-3-yl}oxy)-N-methylacetamide], the DC50 was below 10 nM.
For the compound `CNC(=O)COc1cc2cc(Nc3nc(N4CCC(OC5CCC(N6CCC(c7cccc8c7C(=O)N(C7CCC(=O)NC7=O)C8=O)CC6)C5)CC4)ncc3Cl)ccc2n(C(C)C)c1=O` (stereo not drawn) [Compound 148, 2-({6-[(5-chloro-2-{4-[(3-{4-[2-(2,6-dioxopiperidin-3-yl)-1,3-dioxo-2,3-dihydro-1H-isoindol-4-yl]piperidin-1-yl}cyclopentyl)oxy]piperidin-1-yl}pyrimidin-4-yl)amino]-2-oxo-1-(propan-2-yl)-1,2-dihydroquinolin-3-yl}oxy)-N-methylacetamide], the half-maximal degradation concentration (DC50) was 50 to 100 nM and the maximal degradation (Dmax) is below 50%.
For `CNC(=O)COc1cc2cc(Nc3nc(N4CCC(CN5CCC6(CC5)CC(c5ccc7c(c5)C(=O)N(C5CCC(=O)NC5=O)C7=O)C6)CC4)ncc3Cl)ccc2n(C(C)C)c1=O` (stereo not drawn) [Compound 150, 2-{[6-({5-chloro-2-[4-({2-[2-(2,6-dioxopiperidin-3-yl)-1,3-dioxo-2,3-dihydro-1H-isoindol-5-yl]-7-azaspiro[3.5]nonan-7-yl}methyl)piperidin-1-yl]pyrimidin-4-yl}amino)-2-oxo-1-(propan-2-yl)-1,2-dihydroquinolin-3-yl]oxy}-N-methylacetamide], the half-maximal degradation concentration (DC50) was in the range of 10 to 50 nM and the maximal degradation (Dmax) lay in the range of 50 to 70%.
Regarding `CNC(=O)COc1cc2cc(Nc3nc(N4CCC(F)(CN5CCC6(CC5)CCN(c5c(F)ccc7c5CN(C5CCC(=O)NC5=O)C7=O)CC6)CC4)ncc3Cl)ccc2n(C(C)C)c1=O` (stereo not drawn) [Compound 151, 2-{[6-({5-chloro-2-[4-({9-[2-(2,6-dioxopiperidin-3-yl)-5-fluoro-1-oxo-2,3-dihydro-1H-isoindol-4-yl]-3,9-diazaspiro[5.5]undecan-3-yl}methyl)-4-fluoropiperidin-1-yl]pyrimidin-4-yl}amino)-2-oxo-1-(propan-2-yl)-1,2-dihydroquinolin-3-yl]oxy}-N-methylacetamide], the DC50 was below 10 nM and the Dmax lay within 50 to 70%.
As for `CNC(=O)COc1cc2cc(Nc3nc(N4CCC5(CCN(CC6(F)CCN(c7c(F)ccc8c7C(=O)N(C7CCC(=O)NC7=O)C8)CC6)CC5)CC4)ncc3Cl)ccc2n(C(C)C)c1=O` (stereo not drawn) [Compound 152, 2-{[6-({5-chloro-2-[9-({1-[2-(2,6-dioxopiperidin-3-yl)-5-fluoro-3-oxo-2,3-dihydro-1H-isoindol-4-yl]-4-fluoropiperidin-4-yl}methyl)-3,9-diazaspiro[5.5]undecan-3-yl]pyrimidin-4-yl}amino)-2-oxo-1-(propan-2-yl)-1,2-dihydroquinolin-3-yl]oxy}-N-methylacetamide], the DC50 fell in the range of 10 to 50 nM.
As for `CNC(=O)COc1cc2cc(Nc3nc(N4CCC(O[C@H]5C[C@@H](N6CCC(c7ccc8c(c7)C(=O)N(C7CCC(=O)NC7=O)C8=O)CC6)C5)CC4)ncc3Cl)ccc2n(C(C)C)c1=O` (stereo partly drawn) [Compound 153, 2-({6-[(5-chloro-2-{4-[(1s,3s)-3-{4-[2-(2,6-dioxopiperidin-3-yl)-1,3-dioxo-2,3-dihydro-1H-isoindol-5-yl]piperidin-1-yl}cyclobutoxy]piperidin-1-yl}pyrimidin-4-yl)amino]-2-oxo-1-(propan-2-yl)-1,2-dihydroquinolin-3-yl}oxy)-N-methylacetamide], the DC50 lay in the range of 50 to 100 nM and the Dmax was below 50%.
On to `CNC(=O)COc1cc2cc(Nc3nc(N4CCC5(CC4)CC(C(C)(C)N4CCC(c6cccc7c6CN(C6CCC(=O)NC6=O)C7=O)CC4)C5)ncc3Cl)ccc2n(C(C)C)c1=O` (stereo not drawn) [Compound 154, 2-{[6-({5-chloro-2-[2-(2-{4-[2-(2,6-dioxopiperidin-3-yl)-1-oxo-2,3-dihydro-1H-isoindol-4-yl]piperidin-1-yl}propan-2-yl)-7-azaspiro[3.5]nonan-7-yl]pyrimidin-4-yl}amino)-2-oxo-1-(propan-2-yl)-1,2-dihydroquinolin-3-yl]oxy}-N-methylacetamide], for which the DC50 was at least 100 nM and the maximal degradation (Dmax) lay within 50 to 70%.
As to `CNC(=O)COc1cc2cc(Nc3nc(N4CCN(CC5C6CN(c7ccc8c(c7)C(=O)N(C7CCC(=O)NC7=O)C8=O)CC56)CC4)ncc3Cl)ccc2n(C(C)C)c1=O` (stereo not drawn) [Compound 155, 2-{[6-({5-chloro-2-[4-({3-[2-(2,6-dioxopiperidin-3-yl)-1,3-dioxo-2,3-dihydro-1H-isoindol-5-yl]-3-azabicyclo [3.1.0]hexan-6-yl}methyl)piperazin-1-yl]pyrimidin-4-yl}amino)-2-oxo-1-(propan-2-yl)-1,2-dihydroquinolin-3-yl]oxy}-N-methylacetamide], the half-maximal degradation concentration (DC50) is below 10 nM and the Dmax is below 50%.
On to `CNC(=O)COc1cc2cc(Nc3nc(N4CCN(CC5C6CN(c7cccc8c7C(=O)N(C7CCC(=O)NC7=O)C8=O)CC56)CC4)ncc3Cl)ccc2n(C(C)C)c1=O` (stereo not drawn) [Compound 156, 2-{[6-({5-chloro-2-[4-({3-[2-(2,6-dioxopiperidin-3-yl)-1,3-dioxo-2,3-dihydro-1H-isoindol-4-yl]-3-azabicyclo[3.1.0]hexan-6-yl}methyl)piperazin-1-yl]pyrimidin-4-yl}amino)-2-oxo-1-(propan-2-yl)-1,2-dihydroquinolin-3-yl]oxy}-N-methylacetamide], for which the DC50 is below 10 nM.
As to `CNC(=O)COc1cc2cc(Nc3nc(N4CC5C(CN6CCN(c7ccc8c(c7)C(=O)N(C7CCC(=O)NC7=O)C8=O)CC6)C5C4)ncc3Cl)ccc2n(C(C)C)c1=O` (stereo not drawn) [Compound 157, 2-{[6-({5-chloro-2-[6-({4-[2-(2,6-dioxopiperidin-3-yl)-1,3-dioxo-2,3-dihydro-1H-isoindol-5-yl]piperazin-1-yl}methyl)-3-azabicyclo [3.1.0]hexan-3-yl]pyrimidin-4-yl}amino)-2-oxo-1-(propan-2-yl)-1,2-dihydroquinolin-3-yl]oxy}-N-methylacetamide], the 50% degradation concentration (DC50) lay within 10 to 50 nM and the maximal degradation (Dmax) was below 50%.
Consider `CNC(=O)COc1cc2cc(Nc3nc(N4CC5C(CN6CCN(c7cccc8c7C(=O)N(C7CCC(=O)NC7=O)C8=O)CC6)C5C4)ncc3Cl)ccc2n(C(C)C)c1=O` (stereo not drawn) [Compound 158, 2-{[6-({5-chloro-2-[6-({4-[2-(2,6-dioxopiperidin-3-yl)-1,3-dioxo-2,3-dihydro-1H-isoindol-4-yl]piperazin-1-yl}methyl)-3-azabicyclo [3.1.0]hexan-3-yl]pyrimidin-4-yl}amino)-2-oxo-1-(propan-2-yl)-1,2-dihydroquinolin-3-yl]oxy}-N-methylacetamide], for which the DC50 fell in the range of 10 to 50 nM and the Dmax is below 50%.
The like results for `CNC(=O)COc1cc2cc(Nc3nc(N4CCC(O[C@H]5C[C@H](N6CCC(c7cc8c(cc7OC(C)C)C(=O)N(C7CCC(=O)NC7=O)C8=O)CC6)C5)CC4)ncc3Cl)ccc2n(C(C)C)c1=O` (stereo partly drawn) [Compound 159, 2-[[6-[[5-chloro-2-[4-[3-[4-[2-(2,6-dioxo-3-piperidyl)-6-isopropoxy-1,3-dioxo-isoindolin-5-yl]-1-piperidyl]cyclobutoxy]-1-piperidyl]pyrimidin-4-yl]amino]-1-isopropyl-2-oxo-3-quinolyl]oxy]-N-methyl-acetamide] were, in that order, below 10 nM and at least 70%.
As to `CNC(=O)COc1cc2cc(Nc3nc(N4CCC(O[C@H]5C[C@H](N6CCC(c7cc8c(cc7OC)C(=O)N(C7CCC(=O)NC7=O)C8=O)CC6)C5)CC4)ncc3Cl)ccc2n(C(C)C)c1=O` (stereo partly drawn) [Compound 160, 2-({6-[(5-chloro-2-{4-[(1r,3r)-3-{4-[2-(2,6-dioxopiperidin-3-yl)-6-methoxy-1,3-dioxo-2,3-dihydro-1H-isoindol-5-yl]piperidin-1-yl}cyclobutoxy]piperidin-1-yl}pyrimidin-4-yl)amino]-2-oxo-1-(propan-2-yl)-1,2-dihydroquinolin-3-yl}oxy)-N-methylacetamide], the half-maximal degradation concentration (DC50) was below 10 nM and the greatest degradation seen (Dmax) is at least 70%.

The record behind these values is patent publication US11986532B2 (Arvinas Operations, Inc., priority 2021, dated 2024).
